Counter-ions that a name gives are not always drawn. Like-named read-outs stand apart in the source and are kept apart here.
Experiments:
[1] = Rate of epimerization of DHE mesylate as a function of pH; format: physicochemical
From the text: Maintaining the pH above 5.0 in the compositions prepared according to the present invention results in a better stability profile when compared to DHE 45 maintained at a pH of 3.4-4.9.

[2] = system: migraine; conditions: cited from earlier work

In the case of `CN1C[C@H](C(=O)N[C@]2(C)O[C@@]3(O)[C@@H]4CCCN4C(=O)[C@H](Cc4ccccc4)N3C2=O)C[C@@H]2c3cccc4[nH]cc(c34)C[C@H]21` [DHE mesylate, Dihydroergotamine mesylate], the rate of epimerization ([1]; pH of less than 4.0) is reported as “higher” and the rate of epimerization ([1]; pH of more than 5.0) is reported as “significantly lesser”.

For `CN1C[C@H](C(=O)N[C@]2(C)O[C@@]3(O)[C@@H]4CCCN4C(=O)[C@H](Cc4ccccc4)N3C2=O)C[C@@H]2c3cccc4[nH]cc(c34)C[C@H]21` [DHE, Dihydroergotamine], the “onset of therapeutic efficacy” value ([2]; intranasal) is listed as 45 min, the “onset of therapeutic efficacy” value ([2]; oral or sublingual delivery) is listed as 120 min and the onset of action ([2]; parenteral administration) is listed as “less than 30 minutes”.

From patent US11786512B2, “Stable pharmaceutical compositions of dihydroergotamine mesylate” (Slayback Pharma LLC, priority 2019, dated 2023)
